Where two headings read alike, the source gives them in different places.
What was measured:
Format in all cases: cell-based
[1] = system: endothelial cells (HUVECs); assay: vWF expression by the endothelial component of the endothelialized-human-myocardium-on-a-chip; settings: different doses, human model (FIG. 8D) compared with rat model (FIG. 7D)
Procedure: (§1) Both bioink 26 and CaCl2) solutions can be maintained at 37° C. before use. HUVECs can be re-suspended in the bioink at a concentration of 1×10^7 cells/mL. Following the bioprinting and the subsequent crosslinking processes, the constructs can be washed with PBS to remove excess CaCl2). After washing, the constructs can be cultured in endothelial cell growth medium (EGM) at 37° C. and 5% CO2 volume throughout a period of up to 33 days. The EGM/CO2 medium can be changed twice in the first day and then every 2 days thereafter.
(§2) Live/Dead staining was performed according to the manufacturer's instructions (THERMO FISHER®). Beating of the cardiomyocytes was observed using an optical microscope and analyzed using custom-coded MATLAB programs, as known in the prior art. Monitoring of the beating behavior was performed every day until contractions were no longer observed. […] The levels of secreted vWF were measured by an ELISA kit (ab189571) by ABCAM®.
(§3) The same procedures for fabricating the vascular beds using bioprinted microfibrous scaffolds as described above were used, but hiPSC-cardiomyocytes were subsequently seeded instead of the neonatal rat cells. […] The human-derived myocardial organoids seemed to have slightly lower endurance at all of the time points analyzed in comparison to those of rat origin (FIG. 8C versus FIG. 7C). […]

[2] = system: hiPSC-cardiomyocytes; settings: human
Procedure: The seeding of hiPSC-cardiomyocytes can follow the same procedure that is described above for neonatal rat cardiomyocytes, except that a Roswell Park Memorial Institute (RPMI)-1640 medium containing 1×B27 supplements (by GIBCO®) can be used for culturing. Other choices in the prior art that are known for culturing cardiomyocytes might also be possible.
as §2, §3

[3] = system: endothelial cells (HUVECs); settings: human, 6 day
Procedure: as §1, §2
(§4) For example, the endothelialized-myocardium-on-a-chip model can be used to assess treatment by a common anti-cancer drug, doxorubicin. Unlike other pre-existing models, where only individual cell types were typically included, doxorubicin elicited dose-dependent responses towards both cardiomyocytes and endothelial cells when assessed using the systems and methods of several embodiments.

[4] = system: neonatal rat cardiomyocytes; settings: 6 day
Procedure: For testing of the systems and methods according to several embodiments, neonatal rat cardiomyocytes were seeded following the formation of a layer of confluent endothelium at the peripheries the microfibers of the scaffolds, which generally occurred in 15 days. Freshly isolated cardiomyocytes were suspended in DMEM at a final concentration of 1×10^6 cells m/L. The scaffolds were individually placed on top of a thin layer of hydrophobic polydimethylsiloxane (PDMS). Approximately 40 μL of cell suspension was dropped to cover each scaffold, and incubated at 37° C. for 2 hours, to allow the cardiomyocytes to adhere onto the microfibers. […]
as §2, with “art.” for “art. Monitoring of the beating behavior was performed every day until contractions were no longer observed.”, “ABCAM®. […]” for “ABCAM®.”
as §4

COc1cccc2c1C(=O)c1c(O)c3c(c(O)c1C2=O)C[C@@](O)(C(=O)CO)C[C@@H]3O[C@H]1C[C@H](N)[C@H](O)[C@H](C)O1 [doxorubicin]
toxicity on the endothelial component of the constructs (vWF expression) [1]: corresponded well with that observed for the rat myocardial organoids | relative beating of the hiPSC-cardiomyocytes ([2]; 10 μM): 66.0% | relative beating of the hiPSC-cardiomyocytes ([2]; 100 μM): 2.78% | levels of von Willebrand factor (vWF) secreted by the endothelial cells ([3]; 10 μM): 76.0% | levels of von Willebrand factor (vWF) secreted by the endothelial cells ([3]; 100 μM): 35.3% | relative beating rate of the cardiomyocytes ([4]; 10 μM): 70.5% | relative beating rate of the cardiomyocytes ([4]; 100 μM): 1.62%

From patent US20220195360A1, “Additive Manufacturing of Functional Myocardial Tissue” (The United States of America, as represented by the …, priority 2017, published 2022)
